# Test results published in patent US8273718B2, “Composition for prevention or treatment of bone metabolism disorder comprising D-pinitol as an active ingredient” (Solgent Co., priority 2007, dated 2012).
# Columns and labels:
# [1] = tested on: Raw264.7 cells; assay: Cytotoxicity of D-pinitol on Raw264.7 cells (cell number count); assay type: cell-based; conditions: 0-50 mM, cell number counted for 3 days at 24 hrs intervals; up to maximum 50 mM
# Description: To verify the cytotoxicity of D-pinitol to Raw264.7 cell, Raw264.7 cells were grown on 96-well plate until 0.5×10^3 cells/200 μl. Cells were cultured for 3 days while treating with D-pinitol at concentrations of 1, 3.5, 7, 12.5, 25 and 50 mM respectively. Cell number increased during 3 days of culture was counted to determine the cytotoxicity of added compounds.
# The present inventors examined the cytotoxicity of D-pinitol at various concentrations. Influence of D-pinitol to cell proliferation was examined by treating Raw264.7 cells with various concentrations of D-pinitol. Osteoclast progenitor cell line, Raw264.7 cells were cultured and treated with D-pinitol in a range of 0-50 mM concentration. The number of survived cells was counted for 3 days at 24 hrs intervals.
# [2] = tested on: bone marrow-derived hematopoietic stem cells; assay: Cytotoxicity of D-pinitol on bone marrow hematopoietic stem cells (CCK8); assay type: cell-based, mouse
# Description: To investigate the cytotoxicity of D-pinitol to a bone marrow cell, bone marrow cells were adjusted to 1.0×10^5 cells/200 μl on 96-well plate and co-cultured with 50 ng/ml of M-CSF. Then, cultured cells were grown for 4 days while treating with D-pinitol at concentrations of 1, 3.5, 7, 12.5, 25 and 50 mM respectively. Cytotoxicity was measured using CCK8 kit (Cell Counting Kit-8, Dojindo, Japan). 10% CCK8 solution was added to culture solutions according to each culture time and incubated for 2 hrs at 37° C. After culturing, an absorbance was measured at 450 nm using Microplate reader (Bio-Rad).
# To extract mouse bone marrow cells, thighbone and shinbone of male C57BL/6 mouse at 3-4 weeks of age were aseptically enucleated and their soft tissues were eliminated. Both end of long bone was cut in extracted bone tissues and then bone marrow cells were collected by injecting α-MEM/10% FBS into bone marrow cavity at one end using a 26G injection syringe. Collected bone marrow cells were subjected to 5 ng/ml of M-CSF and incubated for 16 hrs. Unattached cells on plate bottom were harvested.
# The instant inventors examined the cytotoxicity of D-pinitol on hematopoietic stem cells. […] After that, the proliferation-induced cells were treated with D-pinitol at a range of 0-50 mM and the effect of D-pinitol on cell proliferation was determined by measuring CCK8 enzyme activity. […]
# [3] = tested on: Raw264.7 cells; assay: Osteoclastogenesis of Raw264.7 cells, TRAP staining; assay type: cell-based
# Description: Raw264.7 cells were cultured in α-MEM (α-minimal essential medium) containing 10% FBS (fetal bovine serum). In the experiment of examining osteoclastogenesis, cells were adjusted to 2.0×10^3 cells/200 μl on 96-well plate and incubated with 200 ng/ml of sRANKL. TRAP (tartrate resistant acid phophatase) staining and TRAP solution assay were carried out at forth day after culturing cells for 3 days with treatment of D-pinitol at concentrations of 1, 3.5, 7, 12.5, 25 and 50 mM respectively. Cells were fixed for TRAP staining and TRAP solution assay. TARP positive multinuclear (more than 3 nuclei) cells were counted as an osteoclast-like cell. Cells were observed using Leica DM IRM microscope. For cytochemical staining of TRAP positive cell, medium was removed. After that, 100 μl of 10% formalin was added to cells and incubated for 10 min at room temperature. 100 μl of methanol/acetone was added and incubated for 1 min at room temperature. Cells were stained with 10 ml of TRAP buffer (Tris-HCl, pH 4.5, EDTA), naphthol AS phosphate (substrate, Sigma #N-4875) and 5 mg of Fast Red Violet dye (Sigma, F-1625). 1 mg of naphthol AS phosphate dissolved in […] of N, N-dimethyl formide (DMF, Sigma #319937) was used. The reaction was performed for 10-30 min and then red color was observed. Where red color is clearly observed, it was washed with flowing water and dried. […] Raw264.7 cell line was treated with 200 ng/ml of RankL for 4 days. […] To quantitate inhibitory activity of D-pinitol in osteoclastogenesis of Raw264.7 cells, multinucleate cell number was measured via TRAP staining according to various treatment concentration of D-pinitol. […] Therefore, it could be understood that D-pinitol was a substance to inhibit osteoclastogenesis of Raw264.7 cell. D-pinitol inhibited osteoclastogenesis almost 100% at a concentration of 50 mM.
# [4] = tested on: Raw264.7 cells; assay: Osteoclastogenesis of Raw264.7 cells, TRAP solution assay; assay type: cell-based; conditions: RankL
# Description: Raw264.7 cells were cultured in α-MEM (α-minimal essential medium) containing 10% FBS (fetal bovine serum). In the experiment of examining osteoclastogenesis, cells were adjusted to 2.0×10^3 cells/200 μl on 96-well plate and incubated with 200 ng/ml of sRANKL. TRAP (tartrate resistant acid phophatase) staining and TRAP solution assay were carried out at forth day after culturing cells for 3 days with treatment of D-pinitol at concentrations of 1, 3.5, 7, 12.5, 25 and 50 mM respectively. Cells were fixed for TRAP staining and TRAP solution assay. TARP positive multinuclear (more than 3 nuclei) cells were counted as an osteoclast-like cell. Cells were observed using Leica DM IRM microscope. TRAP solution assay of TRAP positive cells were carried out according to the following method. Medium was removed, 100 μl of 10% formalin was added and incubated for 10 min at room temperature. After 100 μl of methanol/acetone was added, incubated for 1 min at room temperature, and then dried. TRAP substrate solution comprising a tablet of pNPP (p-nitrophenylphosphate) dissolved in 20 ml of TRAP buffer (pH 5.2) was added into and incubated for 20-30 min at 37° C. 100 μl of TRAP substrate solution was transferred to a new 96-well plate in which 50 μl of 1N NaOH was contained. Finally, OD (optical density) value was measured at 405 nm. […]
# [5] = tested on: bone marrow-derived osteoclast; assay: Differentiation of bone marrow-derived osteoclast, TRAP staining; assay type: cell-based, mouse
# Description: For cytochemical staining of TRAP positive cell, medium was removed. After that, 100 μl of 10% formalin was added to cells and incubated for 10 min at room temperature. 100 μl of methanol/acetone was added and incubated for 1 min at room temperature. Cells were stained with 10 ml of TRAP buffer (Tris-HCl, pH 4.5, EDTA), naphthol AS phosphate (substrate, Sigma #N-4875) and 5 mg of Fast Red Violet dye (Sigma, F-1625). 1 mg of naphthol AS phosphate dissolved in […] of N, N-dimethyl formide (DMF, Sigma #319937) was used. The reaction was performed for 10-30 min and then red color was observed. Where red color is clearly observed, it was washed with flowing water and dried. […] To extract mouse bone marrow cells, thighbone and shinbone of male C57BL/6 mouse at 3-4 weeks of age were aseptically enucleated and their soft tissues were eliminated. Both end of long bone was cut in extracted bone tissues and then bone marrow cells were collected by injecting α-MEM/10% FBS into bone marrow cavity at one end using a 26G injection syringe. Collected bone marrow cells were subjected to 5 ng/ml of M-CSF and incubated for 16 hrs. Unattached cells on plate bottom were harvested. For the induction of the differentiation of bone marrow-derived osteoclast, bone marrow cells of 1.0×10^5 cells per well were cultured with α-MEM/10% FBS in the presence of 200 ng/ml of sRANKL and 50 ng/ml of M-CSF. D-pinitol was added to media at various concentrations during culture. Three experiments were carried out at each concentration and media were replaced at third day after grown in complete media containing sRANKL, M-CSF and D-pinitol. […] To investigate the effect of D-pinitol on the osteoclast differentiation from bone marrow-derived monocyte, hematopoietic stem cells were extracted from bone marrow and activated for 1 day by M-CSF (5 ng/ml), resulting in induction of the differentiation into mononuclear cells. […] To quantitate the effect of D-pinitol in osteoclatogenesis of bone marrow-derived monocyte, osteoclast cell number within sample was measured using TRAP staining. […]
# [6] = tested on: bone marrow-derived osteoclast; assay: Differentiation of bone marrow-derived osteoclast, TRAP solution assay; assay type: cell-based, mouse
# Description: TRAP solution assay of TRAP positive cells were carried out according to the following method. Medium was removed, 100 μl of 10% formalin was added and incubated for 10 min at room temperature. After 100 μl of methanol/acetone was added, incubated for 1 min at room temperature, and then dried. TRAP substrate solution comprising a tablet of pNPP (p-nitrophenylphosphate) dissolved in 20 ml of TRAP buffer (pH 5.2) was added into and incubated for 20-30 min at 37° C. 100 μl of TRAP substrate solution was transferred to a new 96-well plate in which 50 μl of 1N NaOH was contained. Finally, OD (optical density) value was measured at 405 nm. To extract mouse bone marrow cells, thighbone and shinbone of male C57BL/6 mouse at 3-4 weeks of age were aseptically enucleated and their soft tissues were eliminated. Both end of long bone was cut in extracted bone tissues and then bone marrow cells were collected by injecting α-MEM/10% FBS into bone marrow cavity at one end using a 26G injection syringe. Collected bone marrow cells were subjected to 5 ng/ml of M-CSF and incubated for 16 hrs. Unattached cells on plate bottom were harvested. […] To determine inhibitory effect of D-pinitol on osteoclastogenesis, osteoclast derived from bone marrow primary cells was analyzed using TRAP solution assay.
# [7] = tested on: co-culture of osteoblast and bone marrow-derived osteoclast; assay: Osteoclastogenesis in co-culture of osteoblast and bone marrow cells, TRAP staining; assay type: cell-based, mouse
# Description: To prepare a primary osteoblast of mice, frontal bone and parietal bone of fetal mice at 1 day of age were aseptically enucleated. After washing enucleated bone tissue with PBS solution, it was subsequently treated with mixed-enzyme solution (0.2% collagenase and 0.1% dispase) 6 times at 20 min intervals. Cells having the property of osteoblast were harvested and then washed with culture solution. Washed cells were cultured in α-MEM containing 10% serum for 3 days and used as a primary osteoblast. Co-culture was carried out in a manner that 1.0×10^4 cells/200 μl of osteoblast and 1.0×10^5 cells of bone marrow cells were cultured on 96-well plate with vitamin D3 (10^−6M) and prostagrandin E2 (PGE2, 10^−8M) for 5 days. After culturing, TRAP staining was performed. Osteoblast was extracted from mouse skull and then co-cultured with hematopoietic stem cells of bone marrow in order to induce the differentiation of osteoclast. The effect of D-pinitol on osteoclastogenesis was investigated by treating cells with D-pinitol with a range of 0-50 mM during the differentiation-inducing process.
# [8] = tested on: bone marrow-derived osteoclast; assay: Osteoclast differentiation in respective stages of osteoclastogenesis; assay type: cell-based, mouse; conditions: from 2 days after culture, not less than 25 mM
# Description: To examine the effect of D-pinitol on osteoclast at each stage of culturing, D-pinitol was added to the culture media of osteoclast with various concentrations. D-pinitol-treated osteoclast was separated at each cultured time and then amount of differentiated osteoclast was analyzed using TRAP solution assay. To analyze the effect of D-pinitol on respective stages of differentiation of bone marrow-derived osteoclast, the differentiation state of osteoclast, which has been cultured in the presence of various concentration of D-pinitol, was estimated in a time-dependent course. […] It could be also understood that D-pinitol affects in the cell-fusion stage of the osteoclastogenesis.
# [9] = tested on: bone marrow-derived osteoclast; assay: Bone resorption-degradative potential of osteoclast on bone fragments (toluidine blue staining); assay type: cell-based, mouse
# Description: To examine the effect of D-pinitol on degradative potential of osteoclast in the bone resorption process, fragment of tooth bone was added in 96-well plate and then bone marrow cells were cultured until 1.0×10^5 cells/200 μl. For the differentiation of osteoclast, 50 ng/ml of M-CSF and 200 ng/ml of sRANKL were added. D-pinitol was added to the media in a concentration-dependent manner and incubated for 4 days. Where the differentiation of osteoclast was observed after completing the culture, cells were removed in bone fragment and observed in microscope via 1% toluidine blue staining. To investigate the effect of D-pinitol on the bone resorption-degradative potential of osteoclast, cells were treated with D-pinitol in the range of 0-50 mM during the differentiation into osteoclast on bone fragments which were obtained from human teeth.
smiles,measurement,setting,value
COC1C(O)C(O)C(O)C(O)C1O [D-pinitol],Raw264.7 cell cytotoxicity,[1],not observed
same,effect on CCK8 activity,"[2]; 0-50 mM, M-CSF 50 ng/ml",no effect
same,influence on proliferation of hematopoietic stem cells,[2]; not more than 50 mM,no influence
same,inhibition at 50000 µM,"[3]; Mus musculus, RAW264.7, 50 mM, multinucleate cell count by TRAP staining",~100%
same,osteoclastogenesis (TRAP staining photographs),"[3]; RankL 200 ng/ml, 4 days, increasing concentration up to 50 mM",significantly impaired
same,multinucleate cell number,"[3]; RankL 200 ng/ml, increasing concentration of D-pinitol",significantly decreased
same,inhibitory activity in TRAP solution assay versus counting multinucleate cell number,[4],relatively weaker
same,number of TRAP-stained osteoclast,"[5]; 0-50 mM, RankL 200 ng/ml and M-CSF 50 ng/ml, 4 days",decreased in proportion to the concentration
same,inhibition at 50000 µM,"[5]; Mus musculus, Osteoclast, 50 mM, bone marrow-derived monocyte, read-out: inhibition of osteoclastogenesis",~100%
same,concentration from which a remarkable decrease of multinucleate cell number was observed,[5]; TRAP staining count,25 mM
same,inhibitory effect on differentiation of bone marrow-derived osteoclast,[6],also observed
same,cell number of multinucleated osteoclast,"[7]; 0-50 mM, increasing concentration",significantly decreased
same,osteoclastogenesis,[7]; 50 mM,clearly inhibited
same,differentiation of bone marrow-derived osteoclast,[8],remarkably inhibited
same,bone resorption-degradative potential of osteoclast,"[9]; 0-50 mM, increasing concentration, bone fragments from human teeth",remarkably decreased
same,bone resorption-degradative potential of osteoclast,[9]; not less than 25 mM,dramatically decreased
